Assay results: the supplement of paper PMC13380429

Legend:
Settings in all cases: 72 h
Vero E6 [1] = experiment: relative viability EC50 (midpoint between 100% and the lowest measured viability); higher = less toxic
Calu-3 [2] = experiment: as above
HepG2 [3] = experiment: as above
Caco-2 [4] = experiment: as above
Vero E6 [5] = experiment: cell viability relative to DMSO; higher = less toxic
Calu-3 [6] = experiment: as above
HepG2 [7] = experiment: as above
Caco-2 [8] = experiment: as above
Vero E6 [9] = experiment: drug sensitivity score (DSS) for viability; higher = more toxic; extreme values may be limits of the assay
Calu-3 [10] = experiment: as above
HepG2 [11] = experiment: as above
Caco-2 [12] = experiment: as above
U2OS [13] = experiment: relative viability EC50 (midpoint between 100% and the lowest measured viability); higher = less toxic
U2OS [14] = experiment: cell viability relative to DMSO; higher = less toxic
U2OS [15] = experiment: drug sensitivity score (DSS) for viability; higher = more toxic; extreme values may be limits of the assay

Structure (SMILES)	relative viability EC50 (Vero E6 [1])	relative viability EC50 (Calu-3 [2])	relative viability EC50 (HepG2 [3])	relative viability EC50 (Caco-2 [4])	cell viability (Vero E6 [5]; 1 nM)	cell viability (Vero E6 [5]; 10 nM)	cell viability (Vero E6 [5]; 100 nM)	cell viability (Vero E6 [5]; 1000 nM)	cell viability (Vero E6 [5]; 10000 nM)	cell viability (Calu-3 [6]; 1 nM)	cell viability (Calu-3 [6]; 10 nM)	cell viability (Calu-3 [6]; 100 nM)	cell viability (Calu-3 [6]; 1000 nM)	cell viability (Calu-3 [6]; 10000 nM)	cell viability (HepG2 [7]; 1 nM)	cell viability (HepG2 [7]; 10 nM)	cell viability (HepG2 [7]; 100 nM)	cell viability (HepG2 [7]; 1000 nM)	cell viability (HepG2 [7]; 10000 nM)	cell viability (Caco-2 [8]; 1 nM)	cell viability (Caco-2 [8]; 10 nM)	cell viability (Caco-2 [8]; 100 nM)	cell viability (Caco-2 [8]; 1000 nM)	cell viability (Caco-2 [8]; 10000 nM)	drug sensitivity score (Vero E6 [9])	drug sensitivity score (Calu-3 [10])	drug sensitivity score (HepG2 [11])	drug sensitivity score (Caco-2 [12])	relative viability EC50 (U2OS [13])	cell viability (U2OS [14]; 1 nM)	cell viability (U2OS [14]; 10 nM)	cell viability (U2OS [14]; 100 nM)	cell viability (U2OS [14]; 1000 nM)	cell viability (U2OS [14]; 10000 nM)	drug sensitivity score (U2OS [15])
CC(=O)N[C@H]1[C@H]([C@H](O)[C@H](O)CO)OC(C(=O)O)=C[C@@H]1NC(=N)N [zanamivir]	> 10 µM	> 10 µM	> 10 µM	> 10 µM	94.6%	98.4%	90.6%	98.7%	109%	93.8%	92%	93.2%	91.8%	95.1%	93.4%	95.5%	95.7%	110%	107%	96.4%	90.9%	101%	101%	106%	0	0	0	0	–	–	–	–	–	–	–
CN(C)C(=O)C(=O)c1cn(C)c2cc(Cl)c(C(=O)N3CCC(Cc4ccc(F)cc4)CC3)cc12 [SX-011]	> 10 µM	> 10 µM	> 10 µM	–	110%	94.6%	100%	93.2%	89.2%	94.6%	108%	116%	97.3%	91.2%	112%	102%	104%	102%	86.5%	93.9%	96.3%	98.3%	93.5%	70.4%	0.1	0	0.1	2.3	> 10 µM	99.1%	100%	97.1%	102%	91.2%	0
C[C@@H]1CC(=O)NN=C1c1ccc(NN=C(C#N)C#N)cc1 [levosimendan]	> 10 µM	> 10 µM	> 10 µM	> 10 µM	95.6%	102%	85.7%	103%	99%	93.7%	95.8%	100%	97.3%	109%	101%	102%	98.5%	99.6%	88.4%	97.2%	113%	98.9%	96%	94.6%	0	0	0	0	–	99%	96.8%	101%	96.2%	71.3%	1.8
Cc1c(C)c2c(c(C)c1O)CCC(C)(C)O2 [APC-100]	> 10 µM	> 10 µM	> 10 µM	–	93.5%	85.4%	99.1%	88.1%	102%	96.6%	95.1%	100%	104%	100%	120%	88.6%	120%	95.7%	99.2%	90.4%	118%	100%	131%	71.8%	0	0	0	0.6	> 10 µM	91.4%	100%	94.3%	100%	102%	0
COc1ccc(CCC(=O)c2c(O)cc(O[C@@H]3O[C@H](CO)[C@@H](O)[C@H](O)[C@H]3O[C@@H]3O[C@@H](C)[C@H](O)[C@@H](O)[C@H]3O)cc2O)cc1O [Neohesperidin dihydrochalcone (Nhdc)]	> 10 µM	> 10 µM	> 10 µM	> 10 µM	103%	104%	99.9%	104%	99.7%	108%	92.8%	102%	99.6%	109%	101%	110%	108%	107%	92.1%	102%	104%	95.2%	94.2%	106%	0	0	0	0	–	–	–	–	–	–	–
NC(=O)c1nc(F)cnc1O [favipiravir]	> 10 µM	> 10 µM	> 10 µM	> 10 µM	109%	88.4%	101%	96.8%	103%	100%	105%	98.5%	111%	97.7%	102%	98.8%	103%	79.1%	118%	88.5%	91.7%	71.8%	84.7%	88.6%	0	0	0	0	–	–	–	–	–	–	–
Sc1nc2ccccc2s1 [benzo[d]thiazole-2(3H)-thione]	–	> 10 µM	> 10 µM	> 10 µM	–	–	–	–	–	76.6%	91.1%	96.7%	96.3%	93.1%	99.8%	101%	119%	101%	108%	96.5%	101%	97.1%	103%	94.8%	–	0	0	0	> 10 µM	100%	103%	94.8%	102%	97.2%	0
